Measured values from US4912116A, “Propiophenone derivatives for treatment of pollakiuria (frequency urination)” (Hokuriku Pharmaceutical Co., Ltd., priority 1986, dated 1990).
Where a name gives a salt, the structure may show the parent alone.

Experiments:
in vivo = details: mouse, oral, mortality for one week, Probit method
Experimental: Five to ten male ddY mice aged 4-5 weeks were used for each determination.
The test drug (5-8 dose levels) was orally administrated, and the LD50 value was calculated by Probit method from the mortality for one week after administration.

[1] = system: micturition reflex (rhythmic bladder contractions); assay: Inhibition of micturition reflex (rhythmic bladder contractions) in anesthetized rats; type: in vivo, male wister rats; details: for Disappearance time (of bladder contractions): i.v., 3 rats, mean ± S.E.; for ED (3 min disappearance of contractions): iv, read-out: ED3 (dose at which rhythmic bladder contractions disappeared in three (3) minutes)
Experimental: (§1) statistical analysis: Each data of Experiment 1-6 represents the mean±S.E. statistical analysis of the data was performed using student's t-test.
According to the method described by Morikawa et al. (Folia phamacol. japon.: 88,355 (1986), male wister rats weighing about 300 g (in case of intraduodenal administration, fasted 18-20 hours) were anesthetized with urethane (500 mg/kg, i.p.) and alpha-chloralose (50 mg/kg, i.p.), and fixed on their back.
Then, through a midline incision of the abdomen, the urinary bladder was exposed, provided with a small incision, and a balloon (capacity about 1 ml) was inserted into the bladder dome.
The balloon was connected to a pressure transducer and variations of inside pressure were recorded on a recorder.
Micturition reflex was elicited by elevating balloon pressure 10-20 cm H2 O.
In case of intravenous administration, the drug was administrated through a cannula inserted into the left jugular vein and, in case of intraduodenum administration, the drug was administrated through a cannula into the duodenum from outside the stomach.
In case of intravenous administration, the drug was evaluated by the dissappearance time of bladder contractions caused by micturition reflex.
In case of intraduodenal administration, the sum total of amplitude of bladder contractions caused by the micturition reflex was calculated during each five minutes at 5 min. before and 15, 30, 45, and 60 min. after the administration.
Then, the maximum inhibition rate was determined from one of the above judgment times compared with that of before the administration, and the dose which inhibited 50 percent of the sum total of amplitude of bladder contractions during five minutes (ED 50 value), was calculated from the graph.

[2] = system: cystometrogram (time to micturition); assay: Effects on the cystometrogram (Dog); type: in vivo, Mongrel adult dogs; details: i.v., dogs, mean ± S.E., saline 6.0 ± 13.8
Experimental: as §1
Mongrel adult dogs weighing about 10 kg were anesthetized with thiopental (20 mg/kg, i.v.) and immobilized with gallamine (2 mg/kg, i.v.), and fixed on their back.
In the experiment, infusion of pentobarbital (3 mg/kg/hr, i.v.) and gallamine (3 mg/kg i.v.) were continuted, and artifical respiration was performed (20 times/min, 20 ml air/kg).
After midline incision of the abdomen, the ureters were ligated and polyethylene tubes were inserted into the kidney side and the urinary bladder side. Urine was led out of the body from the kidney side, and warm saline was infused using a continuous infusion pump from the urinary bladder side.
Then, a catheter was inserted into the bladder dome and connected to a pressure transducer. Intravesical pressure was recorded on a recorder.
The infusion rate of saline was changed (6-35 ml/min) so as to induce the time to micturition from the saline infusion (time to micturition) at about five minutes.
The drug was administered (through a cannula inserted into the right femoral vein) at the second minute before the last time to micturition, and the delayed time of micturition was evaluated.

[3] = system: cystometrogram (time to micturition); assay: Effects on the cystometrogram (Cat); type: in vivo, Mongrel adult cats; details: cats
Experimental: as §1
Mongrel adult cats weighing about 3 kg (in case of intraduodenal administration, fasted 24 hours) were anesthetized with urethane (500 mg/kg, i.p.) and alpha-chloralose (50 mg/kg, i.p.) and fixed on their back.
After midline incision of the abdomen, the ureters were ligated and polyethylene tubes were inserted into the kidney side and urinary bladder side, urine was led out of the body from the kidney side, and warm saline was infused using a continuous infusion pump from the urinary bladder side.
Then, a catheter was inserted into the bladder dome and connected to a pressure transducer Intravesical pressure was recorded on a recorder.
The infusion rate of saline was changed (0.7-6.6 ml/min) so as to induce the time to micturition from saline infusion at about five minutes.
Each of delayed time of micturition was evaluated. In case of intravenous administration, the drug was administered through a cannula inserted into the right femoral vein at 30 seconds before saline infusion.
In case of intraduodenal administration, the drug was administrated through a tube inserted into the duodenum by way of mouth at the time of saline infusion, and the time to micturition was measured at 15 min. intervals until 90 min.

CC(CN1CCCC1)C(=O)c1ccc(C2CCCCC2)cc1 (stereo not shown) [Compound 2]
LD50 at 168 h (in vivo): 587 mg/kg
Disappearance time (of bladder contractions) ([1]; 1 mg/kg): 1.0 ± 1.0 min
Disappearance time (of bladder contractions) ([1]; 2 mg/kg): 2.5 ± 1.3 min
Disappearance time (of bladder contractions) ([1]; 4 mg/kg): 6.3 ± 0.8 min
ED (3 min disappearance of contractions) ([1]; Rattus norvegicus): 2.2 mg/kg

CCc1ccc(C(=O)C(C)CN2CCCCC2)cc1 (stereo not shown) [Compound 3]
Disappearance time (of bladder contractions) ([1]; 1 mg/kg): 0.4 ± 0.4 min
Disappearance time (of bladder contractions) ([1]; 2 mg/kg): 5.3 ± 2.6 min
Disappearance time (of bladder contractions) ([1]; 4 mg/kg): 12.0 ± 1.2 min
ED (3 min disappearance of contractions) ([1]; Rattus norvegicus): 1.4 mg/kg

Cc1ccc(C(=O)C(C)CN2CCCCC2)cc1 (stereo not shown) [Compound 4]
LD50 at 168 h (in vivo): 450 mg/kg
Disappearance time (of bladder contractions) ([1]; 1 mg/kg): 1.0 ± 0.7 min
Disappearance time (of bladder contractions) ([1]; 2 mg/kg): 2.3 ± 0.5 min
Disappearance time (of bladder contractions) ([1]; 4 mg/kg): 4.9 ± 1.9 min
ED (3 min disappearance of contractions) ([1]; Rattus norvegicus): 2.4 mg/kg

COc1ccc(C(=O)C(C)CN2CCCC2)c(C)c1C (stereo not shown) [Compound 5]
Disappearance time (of bladder contractions) ([1]; 0.25 mg/kg): 3.0 ± 0.4 min
Disappearance time (of bladder contractions) ([1]; 1 mg/kg): 6.3 ± 1.4 min
ED (3 min disappearance of contractions) ([1]; Rattus norvegicus): 0.25 mg/kg

CN1CCCC1CCC(=O)c1ccc(Cl)cc1 (stereo not shown) [Compound 6]
Disappearance time (of bladder contractions) ([1]; 2 mg/kg): 1.1 ± 0.3 min
Disappearance time (of bladder contractions) ([1]; 4 mg/kg): 1.9 ± 0.3 min
Disappearance time (of bladder contractions) ([1]; 8 mg/kg): 3.0 ± 0.3 min
ED (3 min disappearance of contractions) ([1]; Rattus norvegicus): 8 mg/kg

CC(CN1CCOCC1)C(=O)c1cccc(F)c1 (stereo not shown) [Compound 7]
Disappearance time (of bladder contractions) ([1]; 2 mg/kg): 1.8 ± 1.0 min
Disappearance time (of bladder contractions) ([1]; 8 mg/kg): 6.8 ± 2.1 min
ED (3 min disappearance of contractions) ([1]; Rattus norvegicus): 2.8 mg/kg

CC(CN1CCCC1)C(=O)c1ccc(CF)cc1 (stereo not shown) [Compound 8]
Disappearance time (of bladder contractions) ([1]; 2 mg/kg): 1.5 ± 4.79 min
Disappearance time (of bladder contractions) ([1]; 4 mg/kg): 2.4 ± 2.0 min
Disappearance time (of bladder contractions) ([1]; 8 mg/kg): 5.2 ± 2.5 min

CC(CN1CCCCCC1)C(=O)c1ccc(F)cc1 (stereo not shown) [Compound 9]
Disappearance time (of bladder contractions) ([1]; 1 mg/kg): 0.5 ± 0.1 min
Disappearance time (of bladder contractions) ([1]; 2 mg/kg): 1.2 ± 0.8 min
Disappearance time (of bladder contractions) ([1]; 4 mg/kg): 5.5 ± 2.7 min
ED (3 min disappearance of contractions) ([1]; Rattus norvegicus): 2.7 mg/kg

Cc1c(-c2ccccc2)oc2c(C(=O)OCCN3CCCCC3)cccc2c1=O [flavoxate-HCl, reference compound]
Delayed time of micturition ([2]; 1 mg/kg): 0.6 ± 35.4 s
Delayed time of micturition ([2]; 3 mg/kg, * p < 0.05 vs last time to micturition): 30.6 ± 44.4 s
LD50 at 168 h (in vivo): 1330 mg/kg
Delayed time to micturition ([3]; 1 mg/kg, i.v., mean ± S.E., saline 6.6 ± 10.2): 12.0 ± 10.8 s
Delayed time to micturition ([3]; 4 mg/kg, i.v., mean ± S.E., saline 6.6 ± 10.2): 39.0 ± 43.8 s
Delayed time to micturition ([3]; 8 mg/kg, i.v., mean ± S.E., saline 6.6 ± 10.2): -16.8 ± 36.6 s
Delayed time to micturition ([3]; 30.0 mg/kg, i.d., after 30 min., water 22.2 ± 16.2): -45.6 ± 37.8 s
delayed effect on the cystometrogram (in words) ([3]; intravenous and intraduodenal): not recognized to produce delayed effects
Disappearance time (of bladder contractions) ([1]; 1 mg/kg): 1.1 ± 1.1 min
Disappearance time (of bladder contractions) ([1]; 3 mg/kg): 7.5 ± 2.7 min
ED (3 min disappearance of contractions) ([1]; Rattus norvegicus): 1.4 mg/kg
ED50 ([1]; Rattus norvegicus, intraduodenal administration, read-out: ED50 (dose which inhibited 50 percent of the sum total of amplitude of bladder contractions during five minutes)): 270 mg/kg
